Columns and labels:
[1] = Dog 14C-MGL-3196 mass balance study; format: in vivo
Text: Tables 2A-2B show ^14C-MGL-3196 dog ADME study design.

[2] = Tissue distribution by quantitative whole-body autoradiography, blood and plasma radioactivity in LE rats (Group 3); format: in vivo, rat; details: for Tissue to Plasma Ratio, Adrenal Gland / Tissue to Plasma Ratio, Heart / Tissue to Plasma Ratio, Kidney / Tissue to Plasma Ratio, Liver / Tissue to Plasma Ratio, Lung / Tissue to Plasma Ratio, Muscle / Tissue to Plasma Ratio, Skin / Tissue to Plasma Ratio, Spleen / Tissue to Plasma Ratio, Thyroid / Tissue to Plasma Ratio, Brain: rat
Method: (§1) The study utilized 2 groups of male SD rats (Groups 1 and 2) and 1 group of male LE rats (Group 3); which were obtained from Hilltop Lab Animals, Inc. (Scottdale, Pa.). Group 1 was used for evaluation of excretion mass balance; Group 2 was used for evaluation of plasma total radioactivity PK; and Group 3 was used for evaluation of tissue distribution of total radioactivity. All rats received a single PO dose of [^14C]MGL-3196. The target dose was 5 mg/kg using a formulation prepared in a 4% DMSO/96% of 2% Klucel, 0.1% Tween-80, 0.09% methylparaben and 0.01% propylparaben in purified MilliQ water vehicle.

[3] = Plasma total radioactivity pharmacokinetics in SD rats (Group 2); format: in vivo, rat
Method: as §1

[4] = Excretion mass balance in rats after a single oral dose of [14C]MGL-3196 (Group 1); format: in vivo, rat; details: for Percent Recovery, Carcass / Percent Recovery, Residues / Percent Recovery, Total: totals up to 168 h
Method: as §1
The following studies have been conducted: (a) in vitro drug protein binding, transporter (organic anion transporting polypeptide [OATP], P-glycoprotein [P-gp], breast cancer-related protein [BCRP], and multiple drug resistance protein 1 [MDR1]), and cytochrome P-450 enzyme assays to investigate absorption, distribution, and excretion; (b) in vivo MGL-3196 rat and dog oral PK and bioavailability studies; (c) in vivo ^14C-MGL-3196 rat and dog oral pharmacokinetics, absorption, excretion, and tissue distribution by quantitative whole-body autoradiography (QWBA) studies; and (d) liver disposition of MGL-3196 using an in vitro sandwiched hepatocyte model system (B-CLEAR® technology) in dog (SCDH) and human (SCHH) hepatocytes.

[5] = 3 male beagle dogs, 0-168 hr post-dose, Mean ± SD (% RSD)
[6] = male LE rats Group 3, single PO 5 mg/kg
[7] = pigmented male rats, single PO dose
[8] = male SD rats Group 2, single PO 5 mg/kg
[9] = male SD rats Group 1, single PO 5 mg/kg, mean
[10] = male SD rats Group 1, single PO 5 mg/kg, mean, through 168 h

## CC(C)c1cc(Oc2c(Cl)cc(-n3nc(C#N)c(=O)[nH]c3=O)cc2Cl)n[nH]c1=O [[^14C]MGL-3196]
[1]; [5]
  % of Dose in Cage Residue: 4.55 ± 3.399 (74.8) %
  % of Dose in Feces: 76.3 ± 25.62 (33.6) %
  % of Dose in Urine: 2.57 ± 1.296 (50.4) %
  Total % of Dose Recovered (urine + feces + cage residue): 83.37 ± 24.063 (28.9) %
[1]; dog, 100 mg/kg
  % of total administered recovered in feces: ~83%
  % of total administered recovered in urine: 2.5%
  share of the radioactivity recovered that was in feces: at least 92%
  share of the radioactivity recovered that was in urine: 2.7%
[2]; 1 h
  Tissue to Plasma Ratio, Adrenal Gland: 0.34
  Tissue to Plasma Ratio, Heart: 0.30
  Tissue to Plasma Ratio, Kidney: 3.51
  Tissue to Plasma Ratio, Liver: 16.28
  Tissue to Plasma Ratio, Lung: 0.41
  Tissue to Plasma Ratio, Muscle: 0.12
  Tissue to Plasma Ratio, Skin: 0.21
  Tissue to Plasma Ratio, Spleen: 0.17
  Tissue to Plasma Ratio, Thyroid: 0.27
[2]; 2 h
  Tissue to Plasma Ratio, Adrenal Gland: 0.35
  Tissue to Plasma Ratio, Heart: 0.26
  Tissue to Plasma Ratio, Kidney: 2.28
  Tissue to Plasma Ratio, Liver: 12.40
  Tissue to Plasma Ratio, Lung: 0.42
  Tissue to Plasma Ratio, Muscle: 0.07
  Tissue to Plasma Ratio, Skin: 0.23
  Tissue to Plasma Ratio, Spleen: 0.10
  Tissue to Plasma Ratio, Thyroid: 0.45
[2]; 4 h
  Tissue to Plasma Ratio, Adrenal Gland: 0.28
  Tissue to Plasma Ratio, Brain: 0.03
  Tissue to Plasma Ratio, Heart: 0.29
  Tissue to Plasma Ratio, Kidney: 2.97
  Tissue to Plasma Ratio, Liver: 12.76
  Tissue to Plasma Ratio, Lung: 0.48
  Tissue to Plasma Ratio, Muscle: 0.07
  Tissue to Plasma Ratio, Skin: 0.30
  Tissue to Plasma Ratio, Spleen: 0.13
  Tissue to Plasma Ratio, Thyroid: 0.20
[2]; 8 h
  Tissue to Plasma Ratio, Adrenal Gland: 0.56
  Tissue to Plasma Ratio, Brain: 0.09
  Tissue to Plasma Ratio, Heart: 0.62
  Tissue to Plasma Ratio, Kidney: 2.98
  Tissue to Plasma Ratio, Liver: 11.90
  Tissue to Plasma Ratio, Lung: 0.68
  Tissue to Plasma Ratio, Muscle: 0.23
  Tissue to Plasma Ratio, Skin: 0.72
  Tissue to Plasma Ratio, Spleen: 0.36
  Tissue to Plasma Ratio, Thyroid: 0.46
[2]; Cmax
  Tissue to Plasma Ratio, Adrenal Gland: 0.51
  Tissue to Plasma Ratio, Brain: 0.08
  Tissue to Plasma Ratio, Heart: 0.57
  Tissue to Plasma Ratio, Kidney: 2.97
  Tissue to Plasma Ratio, Liver: 12.76
  Tissue to Plasma Ratio, Lung: 0.62
  Tissue to Plasma Ratio, Muscle: 0.21
  Tissue to Plasma Ratio, Skin: 0.65
  Tissue to Plasma Ratio, Spleen: 0.33
  Tissue to Plasma Ratio, Thyroid: 0.42
[2]; male LE rats
  Radioactivity concentrations at 1392 h post-dose in 7 of 40 tissues (blood, liver, Harderian gland, pancreas, pigmented skin, lung, eye lens): > 7.90 ng equiv/g
  radioactivity quantifiable in blood through: 768 h
  radioactivity quantifiable in plasma through: 168 h
[2]; [6]
  AUCinf obs of blood total radioactivity: 54361 ng equiv·h/g
  AUCinf obs of plasma total radioactivity: 20430 ng equiv·h/mL
  Cmax of plasma total radioactivity (by LSC): 1078 ng equiv/mL
[2]; [7]
  Liver AUC (exposure) higher than plasma: approximately 10 ×
  blood AUC higher than plasma: about 2 ×
  kidney cortex AUC higher than plasma: approximately 3 ×
  liver:plasma AUCall ratio: 10.5
[2]; pigmented male rats, single PO dose, listed as 14C-MGL-3196
  Liver AUC (exposure) higher than plasma: ~10 ×
[2]; throughout the distribution phase (up to 8 h post-dose)
  Tissue to plasma ratios for all tissues except liver, kidney, urinary bladder, and cecum: < 1
[3]; [8]
  mean AUCinf obs of plasma total radioactivity: 25346 ng equiv·h/mL
  mean Cmax of plasma total radioactivity: 2230 ng equiv/mL
[3]; male SD rats, last time point for this group
  radioactivity quantifiable in plasma through: 48 h
[4]; Mean
  Percent Recovery, Carcass: 1.1%
  Percent Recovery, Residues: 1.3%
  Percent Recovery, Total: 87.2%
[4]; Ra#3
  Percent Recovery, Carcass: 1.0%
  Percent Recovery, Residues: 0.9%
  Percent Recovery, Total: 87.3%
[4]; Rat#1
  Percent Recovery, Carcass: 1.1%
  Percent Recovery, Residues: 1.7%
  Percent Recovery, Total: 82.6%
[4]; Rat#2
  Percent Recovery, Carcass: 1.2%
  Percent Recovery, Residues: 1.3%
  Percent Recovery, Total: 91.7%
[4]; [9]
  radioactivity recovered in the cage residues, % of the administered dose: 1.3%
  radioactivity recovered in the carcass, % of the administered dose: 1.1%
[4]; [10]
  radioactivity recovered in the feces, % of the administered dose: 68.6%
  radioactivity recovered in the urine, % of the administered dose: 16.2%
  total recovery of radioactivity, % of the administered dose: 87.2%

— patent US11090308B2, “Methods of treating liver disorders or lipid disorders with a THR-beta agonist” (Madrigal Pharmaceuticals, Inc., priority 2016, dated 2021)
